Test [1] has as its target Voltage-gated inwardly rectifying potassium channel KCNH2 (Homo sapiens, UniProt Q12809). The class given is functional.
Test [2] addresses Glutamate receptor ionotropic, NMDA 1 (Rattus norvegicus, UniProt P35439).
The target of test [3] is Delta-type opioid receptor (Homo sapiens, UniProt P41143).
Test [4] addresses Growth hormone secretagogue receptor type 1 (Homo sapiens, UniProt Q92847).
For another test, the target named is D(3) dopamine receptor (Homo sapiens, UniProt P35462).
The target in the next test is T1, Thromboxane A2 receptor (Homo sapiens, UniProt P21731).
T1 sequence (P21731 whole entry): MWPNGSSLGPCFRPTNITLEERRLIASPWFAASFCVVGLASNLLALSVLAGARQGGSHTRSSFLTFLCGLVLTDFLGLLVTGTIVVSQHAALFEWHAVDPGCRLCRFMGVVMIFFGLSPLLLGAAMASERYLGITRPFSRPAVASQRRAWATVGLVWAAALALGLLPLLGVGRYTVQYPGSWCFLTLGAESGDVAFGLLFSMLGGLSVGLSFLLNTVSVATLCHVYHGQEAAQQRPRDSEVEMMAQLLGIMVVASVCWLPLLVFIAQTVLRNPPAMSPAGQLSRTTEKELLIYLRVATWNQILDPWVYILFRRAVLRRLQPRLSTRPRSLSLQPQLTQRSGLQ

Test [5] has as its target Sodium-dependent dopamine transporter (Homo sapiens, UniProt Q01959).
Test [6] deals with T2, Alpha-2A adrenergic receptor (Homo sapiens, UniProt P08913).
T2 sequence (P08913 whole entry): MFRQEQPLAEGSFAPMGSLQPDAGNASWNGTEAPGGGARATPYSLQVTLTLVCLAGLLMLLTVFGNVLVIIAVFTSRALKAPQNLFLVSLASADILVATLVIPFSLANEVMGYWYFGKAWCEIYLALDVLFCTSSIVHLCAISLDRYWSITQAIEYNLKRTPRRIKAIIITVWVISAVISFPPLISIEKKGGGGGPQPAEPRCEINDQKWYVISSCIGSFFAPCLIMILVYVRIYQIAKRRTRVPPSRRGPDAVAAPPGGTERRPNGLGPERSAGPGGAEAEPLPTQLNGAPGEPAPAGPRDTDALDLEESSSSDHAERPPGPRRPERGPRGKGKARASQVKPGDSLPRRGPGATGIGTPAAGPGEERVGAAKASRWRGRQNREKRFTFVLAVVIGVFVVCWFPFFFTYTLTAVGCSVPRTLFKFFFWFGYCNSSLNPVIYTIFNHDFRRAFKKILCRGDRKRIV
The class given is functional, cell-based.

The target in test [7] is T3, Alpha-2C adrenergic receptor (Homo sapiens, UniProt P18825).
T3 sequence (P18825 whole entry): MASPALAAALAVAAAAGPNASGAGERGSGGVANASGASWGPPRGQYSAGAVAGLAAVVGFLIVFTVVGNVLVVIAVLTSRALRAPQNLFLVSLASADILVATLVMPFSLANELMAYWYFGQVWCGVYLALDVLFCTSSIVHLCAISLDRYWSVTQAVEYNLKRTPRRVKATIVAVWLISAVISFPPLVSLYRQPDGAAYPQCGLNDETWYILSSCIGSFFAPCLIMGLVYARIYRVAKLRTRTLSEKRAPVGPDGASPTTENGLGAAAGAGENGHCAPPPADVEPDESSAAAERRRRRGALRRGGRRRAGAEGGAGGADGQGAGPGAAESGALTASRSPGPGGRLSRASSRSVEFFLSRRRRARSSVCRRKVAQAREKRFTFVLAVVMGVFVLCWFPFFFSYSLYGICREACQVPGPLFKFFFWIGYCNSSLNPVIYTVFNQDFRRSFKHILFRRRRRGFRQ
The class given is functional.

Test [8] deals with T4, 5-hydroxytryptamine receptor 1A (Homo sapiens, UniProt P08908).
T4 sequence (P08908 whole entry): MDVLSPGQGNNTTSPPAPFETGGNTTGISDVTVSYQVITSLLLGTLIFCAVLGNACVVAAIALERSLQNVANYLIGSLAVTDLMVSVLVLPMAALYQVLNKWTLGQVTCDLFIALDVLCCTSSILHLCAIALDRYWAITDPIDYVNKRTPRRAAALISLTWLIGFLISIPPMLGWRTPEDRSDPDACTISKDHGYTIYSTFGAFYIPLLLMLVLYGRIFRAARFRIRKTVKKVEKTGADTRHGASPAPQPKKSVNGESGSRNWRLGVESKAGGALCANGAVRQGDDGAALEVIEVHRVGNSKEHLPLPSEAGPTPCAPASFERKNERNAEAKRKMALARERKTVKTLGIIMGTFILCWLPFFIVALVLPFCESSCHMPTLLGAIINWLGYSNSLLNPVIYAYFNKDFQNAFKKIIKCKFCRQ
Type of test: functional, cell-based.

Test [9] deals with T5, Prostaglandin G/H synthase 1 (Rattus norvegicus, UniProt Q63921).
T5 sequence (Q63921 whole entry): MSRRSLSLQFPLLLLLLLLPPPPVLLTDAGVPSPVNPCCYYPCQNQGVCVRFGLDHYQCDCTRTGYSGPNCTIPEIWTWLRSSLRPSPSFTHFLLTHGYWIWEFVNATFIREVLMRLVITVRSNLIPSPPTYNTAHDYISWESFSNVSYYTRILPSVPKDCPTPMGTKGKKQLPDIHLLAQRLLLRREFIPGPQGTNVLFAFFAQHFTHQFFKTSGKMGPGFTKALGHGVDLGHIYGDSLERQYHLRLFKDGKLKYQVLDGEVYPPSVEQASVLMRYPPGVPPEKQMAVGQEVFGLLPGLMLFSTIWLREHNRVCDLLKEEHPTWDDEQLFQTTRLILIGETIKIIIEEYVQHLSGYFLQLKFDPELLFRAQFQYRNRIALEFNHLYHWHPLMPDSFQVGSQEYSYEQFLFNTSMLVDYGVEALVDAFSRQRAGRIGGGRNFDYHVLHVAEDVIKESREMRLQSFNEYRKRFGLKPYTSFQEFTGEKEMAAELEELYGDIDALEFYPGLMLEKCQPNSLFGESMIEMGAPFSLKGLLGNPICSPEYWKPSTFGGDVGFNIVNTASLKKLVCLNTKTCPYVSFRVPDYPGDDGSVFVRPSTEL
Type of test: functional.

The AC50 is the concentration at which the activity in the assay is half-maximal. Higher therefore signals activity only at high concentration.
Further: assay procedure not described here.

D(3) dopamine receptor, sequence (P35462 whole entry): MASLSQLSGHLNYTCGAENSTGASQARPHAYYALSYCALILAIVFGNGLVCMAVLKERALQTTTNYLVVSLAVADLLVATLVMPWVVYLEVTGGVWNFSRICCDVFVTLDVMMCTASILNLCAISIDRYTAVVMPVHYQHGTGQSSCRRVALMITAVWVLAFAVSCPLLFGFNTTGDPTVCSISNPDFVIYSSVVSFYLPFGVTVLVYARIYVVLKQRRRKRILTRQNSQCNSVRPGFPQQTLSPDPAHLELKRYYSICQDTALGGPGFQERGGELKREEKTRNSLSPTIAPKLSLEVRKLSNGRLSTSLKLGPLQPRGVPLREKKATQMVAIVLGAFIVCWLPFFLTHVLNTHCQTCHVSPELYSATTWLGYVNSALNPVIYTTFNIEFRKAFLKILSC
Growth hormone secretagogue receptor type 1, sequence (Q92847 whole entry): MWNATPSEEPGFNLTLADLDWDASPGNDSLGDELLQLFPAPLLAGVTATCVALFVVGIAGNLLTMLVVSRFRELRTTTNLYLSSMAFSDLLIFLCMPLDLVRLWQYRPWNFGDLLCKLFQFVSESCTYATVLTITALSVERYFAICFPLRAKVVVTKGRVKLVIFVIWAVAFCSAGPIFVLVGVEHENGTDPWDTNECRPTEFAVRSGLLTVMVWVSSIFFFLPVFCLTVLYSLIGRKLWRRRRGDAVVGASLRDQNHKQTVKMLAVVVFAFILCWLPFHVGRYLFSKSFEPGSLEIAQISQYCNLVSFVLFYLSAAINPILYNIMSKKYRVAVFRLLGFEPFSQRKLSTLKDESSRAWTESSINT
Sodium-dependent dopamine transporter, sequence (Q01959 whole entry): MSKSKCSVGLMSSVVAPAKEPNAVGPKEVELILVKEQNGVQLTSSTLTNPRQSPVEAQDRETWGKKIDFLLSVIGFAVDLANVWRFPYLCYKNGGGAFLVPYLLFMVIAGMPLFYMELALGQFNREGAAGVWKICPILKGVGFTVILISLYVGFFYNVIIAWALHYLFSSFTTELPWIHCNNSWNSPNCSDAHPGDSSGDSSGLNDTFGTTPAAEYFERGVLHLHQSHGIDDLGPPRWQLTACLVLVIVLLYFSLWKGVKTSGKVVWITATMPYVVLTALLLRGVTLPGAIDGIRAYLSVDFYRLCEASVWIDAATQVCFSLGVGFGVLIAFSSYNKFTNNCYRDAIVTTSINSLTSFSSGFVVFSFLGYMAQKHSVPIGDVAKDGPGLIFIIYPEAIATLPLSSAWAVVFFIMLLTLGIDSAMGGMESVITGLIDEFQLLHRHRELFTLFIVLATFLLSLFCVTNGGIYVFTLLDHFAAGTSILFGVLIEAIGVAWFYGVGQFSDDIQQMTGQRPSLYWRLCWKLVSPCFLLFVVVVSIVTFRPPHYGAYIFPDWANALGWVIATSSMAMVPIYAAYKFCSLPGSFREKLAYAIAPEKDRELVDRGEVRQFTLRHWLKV
Delta-type opioid receptor, sequence (P41143 whole entry): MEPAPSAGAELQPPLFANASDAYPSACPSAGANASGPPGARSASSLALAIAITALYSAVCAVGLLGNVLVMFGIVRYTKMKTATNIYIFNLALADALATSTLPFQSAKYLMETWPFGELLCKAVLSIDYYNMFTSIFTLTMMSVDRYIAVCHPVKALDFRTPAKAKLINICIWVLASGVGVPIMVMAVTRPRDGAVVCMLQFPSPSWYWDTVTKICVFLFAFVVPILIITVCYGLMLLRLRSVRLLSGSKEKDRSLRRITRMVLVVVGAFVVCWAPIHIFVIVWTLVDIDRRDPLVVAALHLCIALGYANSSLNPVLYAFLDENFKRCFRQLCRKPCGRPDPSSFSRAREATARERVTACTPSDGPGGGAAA
Voltage-gated inwardly rectifying potassium channel KCNH2, sequence (Q12809 whole entry): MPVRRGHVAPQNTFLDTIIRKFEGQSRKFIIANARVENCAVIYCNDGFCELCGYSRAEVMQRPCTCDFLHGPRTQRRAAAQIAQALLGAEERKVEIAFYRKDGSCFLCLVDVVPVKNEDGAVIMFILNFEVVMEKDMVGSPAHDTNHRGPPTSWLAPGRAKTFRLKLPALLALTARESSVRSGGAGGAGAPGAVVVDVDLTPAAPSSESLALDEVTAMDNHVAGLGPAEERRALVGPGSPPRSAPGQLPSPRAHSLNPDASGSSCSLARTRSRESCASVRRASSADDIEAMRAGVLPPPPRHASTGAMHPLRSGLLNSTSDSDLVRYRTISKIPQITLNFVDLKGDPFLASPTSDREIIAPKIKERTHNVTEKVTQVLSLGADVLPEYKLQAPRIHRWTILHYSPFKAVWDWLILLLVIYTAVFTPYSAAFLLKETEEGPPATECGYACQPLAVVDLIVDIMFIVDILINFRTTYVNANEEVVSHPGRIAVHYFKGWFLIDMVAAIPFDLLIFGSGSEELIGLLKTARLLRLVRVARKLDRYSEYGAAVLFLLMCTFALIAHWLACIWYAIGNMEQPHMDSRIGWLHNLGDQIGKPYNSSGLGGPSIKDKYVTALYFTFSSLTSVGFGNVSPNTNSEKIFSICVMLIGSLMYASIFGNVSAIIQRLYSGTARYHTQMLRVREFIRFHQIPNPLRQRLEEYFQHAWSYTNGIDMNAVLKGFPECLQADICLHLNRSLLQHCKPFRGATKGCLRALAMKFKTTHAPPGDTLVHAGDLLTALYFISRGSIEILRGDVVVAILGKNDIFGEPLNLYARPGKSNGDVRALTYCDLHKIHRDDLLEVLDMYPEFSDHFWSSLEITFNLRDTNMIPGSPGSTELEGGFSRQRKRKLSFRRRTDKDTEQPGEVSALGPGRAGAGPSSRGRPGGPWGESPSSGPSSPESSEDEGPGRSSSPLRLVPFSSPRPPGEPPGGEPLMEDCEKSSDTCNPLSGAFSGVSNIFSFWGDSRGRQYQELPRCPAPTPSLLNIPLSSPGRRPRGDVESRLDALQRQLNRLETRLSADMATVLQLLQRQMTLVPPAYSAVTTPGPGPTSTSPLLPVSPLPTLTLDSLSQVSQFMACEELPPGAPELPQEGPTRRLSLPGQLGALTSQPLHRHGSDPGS

For `Clc1ccc2c(N3CCN(CCCN4CCN(c5ccnc6cc(Cl)ccc56)CC4)CC3)ccnc2c1` [PIPERAQUINE], the AC50 in test [1] is 2.56 µM; in [2], > 30 µM; in test [3], > 30 µM; in test [4], > 30 µM; on D(3) dopamine receptor, 9 µM; at Thromboxane A2 receptor it was > 30 µM. Moreover, the half-maximal activity concentration (AC50) in test [5], in test [6], in test [7], in test [8] and in [9] was > 30 µM each time.
As to `Cc1noc(NS(=O)(=O)c2ccc(N)cc2)c1C` [SULFISOXAZOLE], the AC50 in test [1] was > 30 µM; in test [2], > 10 µM; in test [3] it was > 30 µM; in test [4], > 10 µM; on D(3) dopamine receptor, > 30 µM; at Thromboxane A2 receptor, > 10 µM. Besides, the AC50 in test [5], in test [6], in [7], in test [8] and in test [9] was > 10 µM throughout.
As to `CC1(C)S[C@@H]2[C@H](NC(=O)[C@H](N)c3ccccc3)C(=O)N2[C@H]1C(=O)OCOC(=O)[C@@H]1N2C(=O)C[C@H]2S(=O)(=O)C1(C)C` [SULTAMICILLIN], the AC50 (in [1]; in [2]; in [3]; in test [4]; at D(3) dopamine receptor; at Thromboxane A2 receptor) was > 30 µM throughout. Also, the AC50 in test [5], in test [6], in [7], in test [8] and in [9] was > 30 µM throughout.
As for `CCC(=O)O[C@H]1CC[C@H]2[C@@H]3CCC4=CC(=O)CC[C@]4(C)[C@H]3CC[C@]12C` [TESTOSTERONE PROPIONATE], the AC50 was > 30 µM in test [1]; > 10 µM in test [2]; > 30 µM in [3]; > 10 µM in test [4]; > 30 µM on D(3) dopamine receptor; > 10 µM on Thromboxane A2 receptor. The AC50 in test [5], in test [6], in test [7], in test [8] and in test [9] was > 10 µM in each case.
As to `Cc1cc2cc3c(C)cc(=O)oc3c(C)c2o1` [TRIOXSALEN], the AC50 in test [1] is > 30 µM; in test [2] it was > 10 µM; in test [3], > 30 µM; in [4], > 10 µM; on D(3) dopamine receptor, > 30 µM; at Thromboxane A2 receptor, > 10 µM. Further, the AC50 in test [5], in test [6], in test [7], in [8] and in [9] was > 10 µM throughout.
Take `CC(C)[C@H](N)C(=O)OCC(CO)OCn1cnc2c(=O)nc(N)[nH]c21` (some centres undefined) [VALGANCICLOVIR]: the AC50 (in test [1]; in test [2]; in test [3]; in test [4]; at D(3) dopamine receptor; at Thromboxane A2 receptor) was > 30 µM in each case. For the same compound, the AC50 in test [5], in [6], in test [7], in test [8] and in [9] was > 30 µM each time.
On to `CCC(C)C(CC)C(N)=O` (centres undefined) [VALNOCTAMIDE], for which the AC50 (in [1]; in test [2]; in test [3]; in test [4]; on D(3) dopamine receptor; at Thromboxane A2 receptor) was > 30 µM throughout. The AC50 in test [5], in test [6], in [7], in test [8] and in [9] was > 30 µM each time.
As for `CCCC(CCC)C(N)=O` [VALPROMIDE], the AC50 in test [1] is > 30 µM; in test [2] it was > 10 µM; in test [3] it was > 30 µM; in [4], > 30 µM; on D(3) dopamine receptor it was > 30 µM; at Thromboxane A2 receptor it was > 30 µM. Also, the AC50 in test [5] is > 30 µM; in [6], > 10 µM; in test [7], > 10 µM; in test [8], > 30 µM; in test [9] it was > 30 µM.
`Cc1cc(C(C)(C)C)cc(C)c1CC1=NCCN1` [XYLOMETAZOLINE]: the AC50 in [1] was 5.2 µM; in [2] it was > 30 µM; in test [3], > 30 µM; in [4], > 30 µM; on D(3) dopamine receptor it was 3.87 µM; at Thromboxane A2 receptor, > 30 µM. The AC50 is > 30 µM in test [5]; > 30 µM in [6]; 0.239 µM in test [7]; 0.0178 µM in test [8]; > 30 µM in [9].

The record behind these values is ChEMBL document CHEMBL5291721, “A preclinical secondary pharmacology resource illuminates target-adverse drug reaction associations of marketed drugs” (Nat Commun, 2023).
